Measured values from the supplement of paper PMC13380429.

Columns and labels:
Settings in all cases: 72 h
[1] = tested on: Caco-2; assay: cell viability relative to DMSO; higher = less toxic
[2] = tested on: HepG2; assay: as above
[3] = tested on: U2OS; assay: as above
[4] = tested on: Vero E6; assay: as above
[5] = tested on: Caco-2; assay: relative viability EC50 (midpoint between 100% and the lowest measured viability); higher = less toxic
[6] = tested on: HepG2; assay: as above
[7] = tested on: U2OS; assay: as above
[8] = tested on: Vero E6; assay: as above
[9] = tested on: Caco-2; assay: drug sensitivity score (DSS) for viability; higher = more toxic; extreme values may be limits of the assay
[10] = tested on: HepG2; assay: as above
[11] = tested on: U2OS; assay: as above
[12] = tested on: Vero E6; assay: as above
[13] = tested on: Calu-3; assay: cell viability relative to DMSO; higher = less toxic
[14] = tested on: Calu-3; assay: relative viability EC50 (midpoint between 100% and the lowest measured viability); higher = less toxic
[15] = tested on: Calu-3; assay: drug sensitivity score (DSS) for viability; higher = more toxic; extreme values may be limits of the assay

Structure (SMILES) | cell viability ([1]; 1 nM) [%] | cell viability ([1]; 10 nM) [%] | cell viability ([1]; 100 nM) [%] | cell viability ([1]; 1000 nM) [%] | cell viability ([1]; 10000 nM) [%] | cell viability ([2]; 1 nM) [%] | cell viability ([2]; 10 nM) [%] | cell viability ([2]; 100 nM) [%] | cell viability ([2]; 1000 nM) [%] | cell viability ([2]; 10000 nM) [%] | cell viability ([3]; 1 nM) [%] | cell viability ([3]; 10 nM) [%] | cell viability ([3]; 100 nM) [%] | cell viability ([3]; 1000 nM) [%] | cell viability ([3]; 10000 nM) [%] | cell viability ([4]; 1 nM) [%] | cell viability ([4]; 10 nM) [%] | cell viability ([4]; 100 nM) [%] | cell viability ([4]; 1000 nM) [%] | cell viability ([4]; 10000 nM) [%] | relative viability EC50 [5] [µM] | relative viability EC50 [6] [µM] | relative viability EC50 [7] [µM] | relative viability EC50 [8] [µM] | drug sensitivity score [9] | drug sensitivity score [10] | drug sensitivity score [11] | drug sensitivity score [12] | cell viability ([13]; 1 nM) [%] | cell viability ([13]; 10 nM) [%] | cell viability ([13]; 100 nM) [%] | cell viability ([13]; 1000 nM) [%] | cell viability ([13]; 10000 nM) [%] | relative viability EC50 [14] [µM] | drug sensitivity score [15]
CC/C=C(\C(=O)N[C@@H]1C(=O)N2C(C(=O)OCOC(=O)C(C)(C)C)=C(COC(N)=O)CS[C@H]12)c1csc(N)n1 [cefcapene-pivoxil] | 104 | 101 | 117 | 113 | 94.4 | 107 | 93.8 | 89.7 | 78.8 | 86.4 | 97.2 | 106 | 98.5 | 103 | 103 | 109 | 94.7 | 110 | 111 | 102 | > 10 | > 10 | > 10 | > 10 | 0 | 3.3 | 0 | 0 | – | – | – | – | – | – | –
CO/N=C(\C(=O)N[C@@H]1C(=O)N2C(C(=O)O)=C(CSc3nc(=O)c(O)nn3C)CS[C@H]12)c1csc(N)n1 [ceftriaxone] | – | – | – | – | – | 93 | 96.7 | 96.5 | 97.3 | 97.9 | 100 | 94.2 | 94.5 | 95.7 | 97.2 | 96.6 | 102 | 96 | 106 | 95.5 | – | > 10 | > 10 | > 10 | – | 0 | 0 | 0 | 92.7 | 94.5 | 95.2 | 92 | 105 | > 10 | 0
C/C(=C\c1csc(C)n1)[C@@H]1C[C@@H]2O[C@]2(C)CCC[C@H](C)[C@H](O)[C@@H](C)C(=O)C(C)(C)[C@@H](O)CC(=O)O1 [epothilone-B] | 79.8 | 54.2 | 47.6 | 52.8 | 50.6 | 52.3 | 29.7 | 18.4 | 19.8 | 32 | 50.3 | 39.9 | 23.9 | 30.7 | 44.3 | 77.6 | 48.9 | 29.9 | 35.7 | 45.4 | 0.0016 | < 0.001 | < 0.001 | 0.0026 | 24 | 37.2 | 33.1 | 29.5 | 91.8 | 66 | 53.8 | 54.7 | 59.3 | – | 19
C=C1CC[C@H](O)C/C1=C/C=C1\CCC[C@]2(C)[C@@H]([C@H](C)/C=C/[C@H](C)C(C)C)CC[C@@H]12 [ergocalciferol] | – | – | – | – | – | 114 | 99.3 | 112 | 97.5 | 93 | 99.3 | 99.6 | 96.2 | 100 | 94.3 | 102 | 105 | 96.2 | 93.6 | 101 | – | > 10 | > 10 | > 10 | – | 0 | 0 | 0 | 86.5 | 89.2 | 80.2 | 108 | 104 | > 10 | 0
CC(C)OC(=O)CNC(=O)[C@H](CS)NC(=O)CC[C@H](N)C(=O)O [glutathione-monoisopropyl-ester] | 95.7 | 103 | 96.2 | 103 | 96.3 | 102 | 103 | 105 | 101 | 97.3 | – | – | – | – | – | 99.3 | 103 | 99.5 | 99.7 | 100 | > 10 | > 10 | – | > 10 | 0 | 0 | – | 0 | – | – | – | – | – | – | –
NC(=O)CCCCC1CCSS1 (configuration not stated) [lipoamide] | 110 | 90.3 | 92.4 | 97.9 | 102 | 88.4 | 108 | 104 | 102 | 90.9 | 102 | 99.8 | 99.1 | 98.2 | 98 | 103 | 99.2 | 102 | 106 | 99.2 | > 10 | > 10 | > 10 | > 10 | 0 | 0 | 0 | 0 | – | – | – | – | – | – | –
